“Also recorded” adds a separate entry of the source.
How the values were obtained:
[1] = test system: human diploid fibroblasts; experiment: measurement of cytosolic free [Ca2+]i by confocal microscopy (fluo-3-AM); assay type: cell-based; details: PDGF 50 ng/ml, LPA 1 μg/ml
Method: FIG. 1 represents differential changes in growth factor-stimulated calcium release in senescent fibroblasts. Presenescent (passage 7: A and C) and senescent (passage 27: B and D) fibroblasts were grown on coverslips, serum-starved, and incubated with 4 μM fluo-3-AM in serum-free medium for 40 min. The stained cells were treated with […] of platelet-derived growth factor (A and B) or 1 μg/ml of lysophosphatidic acid (C and D) via a micro-perfusion system for the real-time measurement of signaling molecules, and laser scanning confocal microscopy. The scanned images were analyzed for changes in intracellular Ca^2+ at the single cell level and results expressed as relative fluorescence intensity (RFI).
[Ca^2+]i was measured using a laser scanning confocal microscope, as described by Junn et al. (2000). Quiescent fibroblasts grown on glass cover slips in a 6-well plate were stained with 4 μM of fluo-3-acetoxymethyl ester (fluo-3-AM) in phenol red-free medium without serum for 40 min and washed three times with the serum-free medium. Stained cells on each cover slip were mounted on a perfusion chamber (MPS-1000, Seoul Engineering, Korea), placed under the confocal laser scanning microscope (Carl Zeiss LSM 410), and scanned every 5 sec with a 488 nm excitation argon laser and a 515 nm long pass emission filter. Growth factors were added to the cells using an automatic pumping system (self-designed). All scanned images were analyzed for [Ca ^2+]i changes at the single cell level using “Time Series Program” for a real-time measurement of relative fluorescence intensity (RFI) which is installed in the Carl Zeiss LSM 410 confocal system.

[2] = test system: human diploid fibroblasts; experiment: confocal microscopic measurement of actin polymerization (NBD-phallacidin); assay type: cell-based; details: PDGF 50 ng/ml, LPA 1 μg/ml
Method: FIG. 2 represents differential changes in growth factor-induced actin polymerization in senescent fibroblasts. […] The cells were fixed, permeabilized, and stained with NBD-phallacidin, then photographed.
F-actin was stained as described by Shin et al. (1999). Quiescent cells grown on glass cover slips in multi-well culture plates were treated with agonists for 30 min, and the cells were fixed with 3.7% paraformaldehyde in PBS for 30 min on ice. Following permeabilization with 0.2% Triton X-100 in PBS for 15 min on ice, the cells were stained with […] NBD-phallacidin in PBS for 30 min at RT. The stained cells were washed three times with PBS for 15 min and the cover slip was mounted on a slide glass with Gelvatol, which was prepared by mixing 100 ml of 23% polyvinyl alcohol in PBS with 50 ml glycerol. The cells were then observed under a confocal fluorescence microscope.

[3] = test system: human diploid fibroblasts; experiment: DNA synthesis, [3H]thymidine incorporation; assay type: cell-based
Method: FIG. 5 represents reduction of growth factor-induced thymidine incorporation in near-senescent fibroblasts. […] The amount of [^3H]thymidine incorporated into DNA over 4 hrs was measured as described. The data represents an average of 3 counts in cpm. A representative experiment of the three is presented in A. Fold increase over the untreated control was calculated and plotted in B.
FIG. 18 represents changes in LPA-induced thymidine incorporation and cell proliferation in near-senescent fibroblasts versus presenescent fibroblasts. Subconfluent presenescent (passage 8, Pa 8) and near-senescent (passage 24, Pa 24) fibroblasts were serum-starved for 2 days and treated with LPA (1-70 μg/ml) for 16 hrs. The amount of [^3H]thymidine incorporated into DNA over 4 hrs was measured as described. The data represents an average of 3 counts in cpm in each independent experiments. A representative experiment of the three is presented in A. Converted fold increase over the untreated control was calculated and plotted in B.
Quiescent cells were labeled with [^3H]thymidine (0.5 μCi/ml) for 4 hrs and the […] radioactive thymidine was removed by washing with PBS. DNA was precipitated with 10% TCA and lysed in 0.5N NaOH. The radioactivity in neutralized lysates was counted in a liquid scintillation cocktail.

adenylyl cyclases (ACs) = experiment: measurement of adenylyl cyclase activity in membranes of LPA-treated cells; assay type: cell-based, human; details: 30 μg/ml LPA
Method: Subconfluent presenescent (passage 8, Pa 8) and near-senescent (passage 24, Pa 24) fibroblasts were serum-starved for 2 days and treated with 30 μg/ml LPA for the indicated times. The activities of adenylyl cyclase (A) and phosphodiesterase (B) were determined in the fresh membranes and total cell lysates as described in Materials and Methods. The enzyme activities were calculated as pmol/μg/min. The data represents an average of triplicate experiments.
Cells seeded in a 10-cm culture plate were serum-starved and treated with LPA as described in the figure legends. Cells were harvested and homogenized in ice-cold homogenization buffer containing 0.25 M sucrose, 10 mM Tris-HCl, pH 7.5, 10 mM MgCl2, 2 mM EGTA, and protease inhibitors. Homogenates were centrifuged at 20,000×g at 4° C. for 20 min. Pellets were washed twice with the above buffer, resuspended in 10 mM Tris-HCl, pH 7.4, and 10 MM MgCl2, and the adenylyl cyclase assays were performed as described previously (Jang et al. 2001). The membrane proteins (15 μg/ml) were incubated for 10 min at 30° C. in a reaction mixture (100 μl) containing 40 mM Tris, pH 7.4, 0.2 mM EGTA, 100 mM NaCl, 10 mM MgCl2, 0.5 mM ATP, 5 μg/ml phosphocreatine, 5 IU/ml creatine phosphokinase, 10 μM GTP, and 0.5 mM IBMX. The reaction was stopped by adding 2.5 M perchloric acid. The amount of cAMP generated was determined by cAMP binding assay.

Substance: lysophosphatidic acid [LPA]
- cytosolic Ca2+ levels ([1]; presenescent fibroblasts (passage 7)): rapid increase
- Ca2+ response in senescent cells relative to presenescent ([1]; senescent cells (passage 27)): not significantly
- actin polymerization (stress fibers) ([2]; presenescent fibroblasts (passage 10)): enhanced the formation of stress fibers
- agonist-induced actin polymerization in senescent cells ([2]; senescent cells (passage 27)): partially reduced
- fold increase of [3H]thymidine incorporation over untreated control, near-senescent vs presenescent ([3]; 50-70 μg/ml LPA): slightly higher
- agonist-induced DNA synthesis ([3H]thymidine incorporation) in near-senescent cells vs presenescent ([3]; near-senescent cells (passage 24)): reduced but less so than PDGF; also recorded: reduced
- concentration at which increase of [3H]thymidine incorporation is apparent ([3]; presenescent fibroblasts): 10 µg/mL
- concentration at which increase of [3H]thymidine incorporation is maximal ([3]; presenescent fibroblasts): 50 to 70 µg/mL
- total AC activity (adenylyl cyclases (ACs); near-senescent cells): increased
- total AC activity (adenylyl cyclases (ACs); presenescent cells): reduced time-dependently
